In one assay the target is T1, human CaSR N102F mutant (Homo sapiens, UniProt P41180, N102F).
T1 construct: (N); expressed in transfected cells; host or cells: PEAKrapid cells (ATCC), pcDNA 3.1, transient transfection
T1 sequence (P41180 20-1078 N102F): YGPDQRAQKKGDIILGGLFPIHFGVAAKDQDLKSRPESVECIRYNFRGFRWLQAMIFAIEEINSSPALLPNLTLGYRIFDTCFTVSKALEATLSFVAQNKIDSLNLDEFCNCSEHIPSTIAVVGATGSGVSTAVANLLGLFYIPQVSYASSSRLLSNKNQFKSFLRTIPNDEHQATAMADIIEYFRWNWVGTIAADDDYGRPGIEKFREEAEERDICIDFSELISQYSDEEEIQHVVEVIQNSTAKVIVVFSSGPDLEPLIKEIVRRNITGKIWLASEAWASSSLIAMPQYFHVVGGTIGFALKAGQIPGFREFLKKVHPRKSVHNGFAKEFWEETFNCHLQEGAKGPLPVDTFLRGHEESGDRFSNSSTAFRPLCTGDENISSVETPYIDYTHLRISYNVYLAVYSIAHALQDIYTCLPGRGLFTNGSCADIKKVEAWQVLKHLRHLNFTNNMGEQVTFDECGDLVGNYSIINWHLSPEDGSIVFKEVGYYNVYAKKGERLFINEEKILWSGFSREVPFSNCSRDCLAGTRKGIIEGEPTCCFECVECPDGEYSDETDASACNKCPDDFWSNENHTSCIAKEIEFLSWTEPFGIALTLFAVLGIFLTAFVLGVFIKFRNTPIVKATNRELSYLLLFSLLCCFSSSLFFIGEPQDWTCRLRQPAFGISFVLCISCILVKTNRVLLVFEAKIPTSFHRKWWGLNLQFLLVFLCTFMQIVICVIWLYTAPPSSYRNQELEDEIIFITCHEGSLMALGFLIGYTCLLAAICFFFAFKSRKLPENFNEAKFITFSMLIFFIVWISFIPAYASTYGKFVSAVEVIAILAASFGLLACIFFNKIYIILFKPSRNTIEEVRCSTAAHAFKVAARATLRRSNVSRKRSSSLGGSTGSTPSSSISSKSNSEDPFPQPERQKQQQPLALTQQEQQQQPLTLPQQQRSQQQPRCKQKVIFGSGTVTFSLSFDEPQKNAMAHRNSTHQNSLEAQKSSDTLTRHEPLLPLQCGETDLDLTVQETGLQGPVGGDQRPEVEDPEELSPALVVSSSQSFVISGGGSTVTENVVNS
Put plainly: Calcium mobilization assay, CaSR N102F mutant. The format is cell-based. To be noted: for Response in calcium mobilization assay: in words, compared with wild type; for Emax: read-out: Emax (% of wild-type values). As to the method: (§1) The CaSR receptor responsiveness was assessed by using PEAK^rapid cells (ATCC, Manassas, VA, USA) transiently transfected with the receptor DNA by the method reported by Kitajima et al.[6]. Briefly, human CaSR or its mutant cDNA with a signal sequence (MAFYSCCWVLLALTWHTSA) followed by FLAG-tag (DYKDDDDK) were inserted into pcDNA 3.1 expression vectors in Opti-MEM I medium (Thermo Fisher Scientific), mixed with FuGENE 6 (Roche), and poured onto PEAK^rapid cells grown at a submaximal concentration. After culturing for 24 h in 96-well plates, the cells were incubated with 5 µM Calcium-5 solution (Calcium-5 assay kit, Molecular Devices) for 45–60 min, and measurements were performed using a plate reader (FDSS/µCELL, Hamamatsu Photonics, Shizuoka, Japan) and its associated software. The activation of CaSR expressed in cells increases the intracellular Ca^2+ concentration, which is measured using a Ca^2+-sensitive dye. The binding of Ca^2+ to the Ca^2+-sensitive dye increases dye fluorescence, with excitation at 485 nm and emission at 525 nm. Test compounds were dissolved and administered in the assay buffer (146 mM NaCl, 1 mM MgSO4, 20 mM HEPES, 1 mM CaCl2, 2.5 mM probenecid, and 1.39 mM glucose, pH 7.4). Transiently transfected cells were challenged with compounds and compared with the vehicle alone and/or mock-transfected cells. The concentration dependence of the fluorescence intensity (influx of Ca^2+) was analyzed using the plate reader at 1 s intervals for 180 s. For the dose–response curve calculations, peak fluorescence responses after the addition of compounds were corrected for, normalized to the background fluorescence (ΔF/F = –F − F0)/F0), and baseline noise was subtracted. Dose–response curves were calculated by non-linear regression using GraphPad PRISM 8.0.

A further assay addresses T2, human CaSR R66A mutant (Homo sapiens, UniProt P41180, R66A).
T2 construct: (N); expressed in transfected cells; host or cells: PEAKrapid cells (ATCC), pcDNA 3.1, transient transfection
T2 sequence (P41180 20-1078 R66A): T1 sequence (P41180 20-1078 N102F) with R47A, F83N
Put plainly: Calcium mobilization assay, CaSR R66A mutant. The settings on record: for Response in calcium mobilization assay: in words; for EC50: mean ± s.e.m., n = 3. In kind it is cell-based. As to the method: as §1

The mark [1] stands for this setting: N102F mutant, mean ± s.e.m., n = 3, read-out: EC50.

Molecules are shown by their SMILES. Positions count from the first letter of the chain named. Where two headings read alike, the source gives them in different places. *1 amine or outer side, *2 acyl side, *3 side chain or, on linkers, in order; H or OH if unused. Where a SMILES comes first, the peptide text is derived from it. γGlu = O=C(O)[CH](CCC(=O)[*:2])N[*:1]

Turning to `CC(C)[C@H](NC(=O)CC[C@H](N)C(=O)O)C(=O)O` [γ-EV, γ-glutamyl-valine], on human CaSR N102F mutant (N102F mutant), the “Emax (% of wild-type values)” value is 194.8 % of WT. For the same compound, the “Response in calcium mobilization assay” value on human CaSR N102F mutant (N102F mutant) is reported as “more active than the wild type”; on human CaSR R66A mutant (R66A mutant), “no response”. Further, on human CaSR N102F mutant (setting [1]), the EC50 turned out to be 0.00448 ± 0.0002 mM.

`CC(C)C(NC(=O)CCC(N)C(=O)O)C(=O)NCC(=O)O` (stereo not drawn) [γ-EVG, γ-glutamyl-valyl-glycine] (γGlu-Val-Gly-OH; configuration not given here): the “EC50 of N102F mutant relative to wild-type EC50” value at human CaSR N102F mutant (6.52 / 0.18, N102F vs wild type) is recorded as “approximately 36.2 fold”. In addition, the half-maximal effective concentration (EC50) was determined as 0.00652 ± 0.0001 mM on human CaSR N102F mutant (N102F mutant, read-out: EC50 of the N102F mutant) and 0.0189 ± 0.0005 mM on human CaSR R66A mutant (R66A mutant, ND not detected). For the same compound, the figures for the Emax at human CaSR N102F mutant and at human CaSR R66A mutant (read-out: Emax (% of wild-type values)) were 95.7% and 53.6%, respectively. Moreover, at human CaSR R66A mutant (R66A mutant), the “Response in calcium mobilization assay” value is listed as “reduced its function compared to the wild-type”.

As for `N[C@@H](Cc1ccc(O)cc1)C(=O)O` [L-Tyr, L-tyrosine], at human CaSR N102F mutant (N102F mutant), the “Response in calcium mobilization assay” value was “more active than the wild type” and the Emax is 132%. The half-maximal effective concentration (EC50) at human CaSR N102F mutant (setting [1]) was 2.16 ± 0.4 mM. In addition, the “Response in calcium mobilization assay” value at human CaSR R66A mutant (R66A mutant) is “no response”.

As to `[Ca+2].[Cl-].[Cl-]` [CaCl2], the results for the “Emax (% of wild-type values)” value at human CaSR N102F mutant (N102F mutant) and at human CaSR R66A mutant (R66A mutant) were 87.8 % of WT and 107.2 % of WT, respectively. Further, the figures for the EC50 on human CaSR N102F mutant (setting [1]) and at human CaSR R66A mutant (R66A mutant) were 2.75 ± 0.21 mM and 3.87 ± 0.5 mM, respectively.

The values are drawn from PMC11785791, “Cryo-EM structure of the calcium-sensing receptor complexed with the kokumi substance γ-glutamyl-valyl-glycine” (Scientific Reports, 2025).
